Patent EP0032432A1, “Prostanoid compounds and their preparation and pharmaceutical formulations” (GLAXO GROUP LIMITED, priority 1980, dated 1981)

What follows are compounds tested on human whole blood (assay: Inhibition of platelet aggregation (method of Born, collagen instead of ADP as pro-aggregatory agent; pA2 by Arunlakshana and Schild)). Conditions: tested at a concentration of 2 pg/ml.
Assay type: cell-based
From the text: As indicated above, our tests have shown that compounds of formula (1) inhibit blood platelet aggregation and/or have bronchodilatatory activity. The test we have used for bronchodilatation is as described by K.M. Lulich, et al in British Journal of Pharmacology 58, 71-79, (1976) except guinea-pig lung is used instead of cat lung. The test for inhibition of platelet aggregation is as described by G.V. Born in Nature 194, 927-929 (1962) except collagen is used instead of ADP as the pro-aggregatory agent.
The following compounds were tested at a concentration of 2 pg/ml for their ability to inhibit the aggregation of human whole blood according to the method of G V Born in Nature 194, 927-929 (1962) except collagen was used instead of ADP as the pro-aggregatory agent. pA2 values were determined using the standard procedures of Arunlakshana and Schild in Br J Pharmac Chemother, 14, 48-58 (1959): […]

First: O=C(O)CCCC=CCC1C(OCc2ccc(-c3cccs3)cc2)CC(=O)C1N1CCOCC1 (racemic) [5f), [1α(Z),2β,5α]-(±)-7-[2-(4-Morpholinyl)-3-oxo-5-[4-(thien-2-yl)phenylmethoxy]cyclopentyl]-5-heptenoic acid]
Second: Cc1ccc(-c2ccc(COC3CC(=O)C(N4CCOCC4)C3CC=CCCCC(=O)O)cc2)cc1 (racemic) [Example 5a), [1α(Z),2β,5α-(±)-7-[5-[[4'-Methyl(1,1'-biphenyl)-4-yl]methoxy]-2-(4-morpholinyl)-3-oxocyclopentyl]-5-heptenoic acid]
The Kb of the first is 2.8-fold higher: 44.7 nM for the first, 15.8 nM for the second.

Compared with `COc1ccc(-c2ccc(COC3CC(=O)C(N4CCOCC4)C3CC=CCCCC(=O)O)cc2)cc1` (racemic) [11a), [1α(Z),2β,5α]-(±)-7-[5-[[4'-Methoxy(1,1'-biphenyl)-4-yl]methoxy]-2-(4-morpholinyl)-3-oxocyclopentyl]-5-heptenoic acid], `O=C(O)CCCC=CCC1C(OCc2ccc(Cc3ccccc3)cc2)CC(=O)C1N1CCOCC1` (racemic) [11b), 1α(Z),2β,5α]-(±)-7-[2-(4-Morpholinyl)-3-oxo-5-[[4-(phenylmethyl)phenyl]methoxy]cyclopentyl]-5-heptenoic acid] is 2.5-fold higher in Kb: 15.8 nM for the first, 39.8 nM for the second.

What follows are compounds tested on dogs (assay: Toxicity, oral administration to dogs). Conditions: given orally to dogs at a dose of 1 mg/kg.
Assay type: in vivo
From the text: The compounds are in general non-toxic at therapeutically useful doses.

`COc1ccc(-c2ccc(COC3CC(=O)C(N4CCOCC4)C3CC=CCCCC(=O)O)cc2)cc1` (racemic) [11a), [1α(Z),2β,5α]-(±)-7-[5-[[4'-Methoxy(1,1'-biphenyl)-4-yl]methoxy]-2-(4-morpholinyl)-3-oxocyclopentyl]-5-heptenoic acid] was tested, and the adverse effects was “no adverse effects”.
For `O=C(O)CCCC=CCC1C(OCc2ccc(-c3ccc(-c4ccccc4)cc3)cc2)CC(=O)C1N1CCOCC1` (racemic) [Example 11c), [1α(Z),2β,5α]-(±)-7-[2-(4-Morpholinyl)-3-oxo-5-[[(1,1';4.1"-terphenyl)-4-yl]methoxy]cyclopentyl]-5-heptenoic acid], the adverse effects was “no adverse effects”.
With `O=C(O)CCCC=CCC1C(OCc2ccc(Cc3ccccc3)cc2)CC(=O)C1N1CCCCC1` (racemic) [Example 11f), [1α(Z),2β,5α]-(±)-7-[3-Oxo-5-[4-(phenylmethyl)phenylmethoxy]-2-(1-piperidinyl)cyclopentyl]-5-heptenoic acid] the adverse effects was “no adverse effects”.

What follows are compounds tested on guinea-pig lung (assay: Potential bronchodilatation (method of Lulich et al., guinea-pig lung instead of cat lung; pA2 by Arunlakshana and Schild)). Conditions: Cavia porcellus, tested at concentrations between 2 x 10^-7 to 2x10^-5 mole/litre.
Assay type: cell-based

Compared with `COc1ccc(-c2ccc(COC3CC(=O)C(N4CCCCC4)C3CC=CCCCC(=O)O)cc2)cc1` (racemic) [11e), [1α(Z),2β,5α]-(±)-7-[5-[[4'-Methoxy(1,1'biphenyl)-4-yl]methoxy]-3-oxo-2-(1-piperidinyl)cyclopentyl]-5-heptenoic acid], `Cc1ccc(-c2ccc(COC3CC(=O)C(N4CCCCC4)C3CC=CCCCC(=O)O)cc2)cc1` (racemic) [11g), [1α(Z),2β,5α]-(±)-7-[5-[[4'-Methyl(1,1'-biphenyl)-4-yl]ntethoxy]-3-oxo-2-(1-piperidinyl)cyclopentyl]-5-heptenoic acid] is 2-fold higher in Kb: 1.58 nM for the first, 3.16 nM for the second.

Compared with `O=C(O)CCCC=CCC1C(OCc2ccc(Cc3ccccc3)cc2)CC(=O)C1N1CCS(=O)(=O)CC1` (racemic) [11i), [1α(Z),2β,5α]-(±)-7-[3-Oxo-5-[4-(phenylmethyl)-phenylmethoxy]-2-(4-thiomorpholinyl)cyclopentyl]-5-heptenoic acid, S-dioxide], `COc1ccc(-c2csc(COC3CC(O)C(N4CCOCC4)C3CC=CCCCC(=O)O)c2)cc1` (racemic) [Example 10b), [1α(Z),2β,3α,5α]-(±)-7-[3-Hydroxy-5-[[4-(4-methoxyphenyl)thien-2-yl]methoxy]-2-(4-morpholinyl)cyclopentyl]-5-heptenoic acid] is 3.2-fold lower in Kb: 3.16 nM for the first, 1 nM for the second.

Same assay, conditions: tested at concentrations between 2 x 10^-7 to 2x10^-5 mole/litre

Going from `Cc1ccc(-c2ccc(COC3CC(=O)C(N4CCOCC4)C3CCCCCCC(=O)O)cc2)cc1` (racemic) [18a), (1α,2β,5α)-(±)-5-[[4'-Methyl(1,1'-biphenyl)-4-yl]methoxy]-2-(4-morpholinyl)-3-oxocyclopentaneheptanoic acid] to `COc1ccc(-c2ccc(COC3CC(=O)C(N4CCOCC4)C3CCCCCCC(=O)O)cc2)cc1` (racemic) [18d), (1α,2β,5α)-(±)-5-[[-4'-Methoxy(1,1'-biphenyl)-4-yl]-2-(4-morpholinyl)-3-oxocyclopentaneheptanoic acid], the pA2 rises from 8.6 to 8.9.
